Four compounds from patent US6907280B2, “Method and apparatus for objectively measuring pain, pain treatment and other related techniques” (The General Hospital Corporation, priority 1999, dated 2005) can be followed below.

SMILES strings stand for the structures.

Assay [1] relates to aCG and NAc brain regions. The assay can be described thus: fMRI of 41° C. stimulus in subject sensitized to heat by capsaicin (hyperalgesia, Pain 2). The assay is classed as in vivo, human. The method, then:
Referring now to FIG. 8A, an image of an anterior cingulate gyrus (aCG) having an activation 750 in response to a 41° C. thermal stimulus is shown. […] It should be appreciated of course that any thermal mechanical, chemical device can be used to produce pain. […] Referring now to FIG. 8C, an image of aNAc region 760 in response to a 41° C. thermal stimulus is shown. […] The size and color of the activations shown in FIG. 8C indicate the relative activation and statistical significance respectively within each region.

A short description of assay [2]: Heat/capsaicin sensitization model on the face: VAS pain ratings. The assay is classed as in vivo, human. The following applies: 11 point VAS 0-10. The method, then:
(§1) In one experiment, the following paradigm was used. First allodynia was induced by application of heat in the form of a heat probe as described above to portions of the face of a subject. The heat was applied at a temperature of 44° C. for time period of 5 minutes. Next, a 0.075% capsaicin cream was applied for 20 minutes in the same facial area where the heat probe had been. The capsaicin cream was modified following the method described in “A new human experimental pain model: the heat/capsaicin sensitization model,” Petersen and Rowbotham, Neuroreport. 1999; 10(7):1511-6. Allodynia was produced by the application of normally non-noxious brush and 41 ° C. stimuli to the right (R) and left (L) V2 division of the trigeminal node.
For the 5 minute thermal application, the capsaicin application and the pain induced by normally non-noxious mechanical and thermal stimuli to the right or left V2 region, the subjects rated the intensity of the pain they experienced using a conventional on-line VAS rating scheme (i.e. an 11 point visual analogue scale 0-10; where 0=no pain and 10=maximum pain). The subjects rated the 5 minute thermal application and the capsaicin application on the V2R as approximately 5 and 2.5, respectively, on the VAS rating scale. The application of the brush to the V2R region was rated as a 2.5 on the VAS scale and the brush to the V2L region (i.e. the untreated V2 region) produced no pain. Also, application of the 41° C. probe to the V2R region was rated as approximately 9 on the VAS scale while application of the 41° C. probe to the V2L region was rated as approximately 1 on the VAS scale.

Assay [3] has as its system brainstem region spV and thalamus. The assay can be described thus: Heat/capsaicin sensitization model on the face: fMRI of spV and thalamus. The assay is classed as in vivo, human. The method, then: Referring now to FIG. 13, surrogate models of sensitization are explained. Activation in the spV and thalamus following allodynia produced by a heat-capsaicin model in a healthy volunteer are, together, different than in acute pain.
as §1
Curve 1306 represents a zero baseline signal. Curve 1300 is plotted as percent signal change vs. time (seconds).
Referring now to FIG. 13A, a curve 1310 representing the response of the thalamus to a series of brush strokes of an example of pain 2 is shown. Curve 1312 represents a zero baseline signal. The brush strokes are applied during time periods designated 1314a, 1314b.

The subject of assay [4] is reward/aversion circuitry (GOb, NAc). The assay can be described thus: Cocaine expectancy fMRI (prior to/shortly after infusion, before pharmacological effects). The following applies: right hemisphere. Format: in vivo, human. An excerpt:
Also, drug expectancy effects can be observed prior to the infusion of cocaine vs. saline. […] These effects result from probability assessments regarding the potential of receiving a drug reward (i.e. a previously experienced reward).

In assay [5] the test system is reward/aversion circuitry (GOb, NAc, SLEA, amygdala, VT). The assay can be described thus: Double-blind cocaine vs saline infusion fMRI in cocaine addicts (Table II Cocaine (1)). The note with it: Outcomes, right hemisphere.
For a further assay, the system named is NAc brain region. The note with it: 4 mg/70 kg, noxious heat 46° C.
Assay [6] relates to reward/aversion circuitry (GOb, NAc, SLEA, amygdala, VT). The assay can be described thus: Unblinded low-dose morphine vs saline infusion fMRI in drug-naive healthy volunteers. Format: in vivo, human. The text has this: Error bars are included for the MRI data acquired as the 20′ time-point, the 70′ time-point, the 150′ time-point, and the 250′ time-point. Time is represented in seconds using a conversion of repetition time (TR)=6 RR intervals=6 seconds. […] (Table II)

A further assay concerns VT/PAG brain region. The assay can be described thus: fMRI of VT/PAG during intravenous naloxone infusion. The following applies: naloxone 4 mg/70 kg i.v., infusion period vs preinfusion. Format: in vivo, human. As for the experimental part: Referring to FIGS. 10E and 10F, central nervous system (CNS) activity in reward/aversive regions is shown in response to an infusion of naloxone (in a dose of 4 mg/70 kg) in a subject.
Referring now to FIG. 10E, the VT/PAG (combined left and right components in region 820) having an activation 820 in response to an infusion of naloxone in a subject. The size and shade of the region 420a indicates the extent of activation and statistical significance respectively within the region. […] In region 820, a darker shade of gray indicates a less significant activation while a region indicated by a lighter shade of gray indicates a more significant activation.
The period 822a has a duration typically of about five minutes followed by the infusion period 822b having a duration typically of about five minutes.
The response is represented by curve 828 showing preinfusion (white background) and post-infusion (stippled background) time points.
As is known, the VT/PAG is part of the reward/aversion circuitry in the brain and since infusion of naloxone elicits a corresponding decrease (as measured by percentage signal change) in the VT/PAG response, the VT/PAG is said to be negatively valenced with respect to a drug that affects pain function, and analgesic responses to pain.

Where [7] appears, read: Outcomes, Morphine, right hemisphere.

Consider `COc1cc(CNC(=O)CCCC/C=C/C(C)C)ccc1O` [capsaicin], for which, in assay [1], the “NAc signal change to thermal pulse” value is “negative percentage change” and the “aCG signal change to thermal pulse” value is reported as “positive percentage change”. Besides, the “Pain intensity rating of the capsaicin application” value in assay [2] (0.075% capsaicin cream 20 minutes on V2R) is recorded as roughly 2.5. The “Pain intensity rating of 41° C. probe on treated region” value in assay [2] (41° C. probe to V2R after heat/capsaicin) is on record as “approximately 9”. In assay [2] (brush to V2R after heat/capsaicin), the “Pain intensity rating of brush on treated region” value worked out at 2.5. Besides, the “Ipsilateral spV activation” value in assay [3] (41° C. thermal probe to V2 skin treated with capsaicin) was “activation in the ipsilateral spV was observed”. Further, in assay [3] (brush induced allodynia, heat-capsaicin model, p<0.01 t-test), the “Contralateral thalamus signal change” value was “decrease in signal”.
For the compound `COC(=O)[C@H]1[C@@H](OC(=O)c2ccccc2)C[C@@H]2CC[C@H]1N2C` [cocaine], in assay [4], the “Activation, Gob R” value was “X^2”. In addition, in assay [5], the “Activation, Amygdala R” value is listed as “(X)” and the “Activation, SLEA R” value was “(X)”.
Take `CN1CC[C@]23c4c5ccc(O)c4O[C@H]2[C@@H](O)C=C[C@H]3[C@H]1C5` [morphine]: the “Analgesic effect determined from NAc activation” value in the assay with NAc brain region is “attenuates pain”. For the same compound, in assay [6] (setting [7]), the “Activation, Gob R” value was “(X)”; the “Activation, NAc R” value is given as “X^3”; the “Activation, SLEA R” value was “X^2”. The “Laterality of NAc signal changes” value in assay [6] (averaged time-course, right and left NAc, morphine vs saline) is reported as “bilateral NAc changes”. For the same compound, the “Valence of NAc signal” value in assay [6] (drug reward) is given as “positively valenced signal”. Besides, the “Activation of reward regions such as the NAc” value in assay [6] (low dose morphine, healthy volunteers) is given as “activation”. Also, the Subjective effect result in assay [6] (very low doses of morphine) is “mild euphoria”.
Consider `C=CCN1CC[C@]23c4c5ccc(O)c4O[C@H]2C(=O)CC[C@@]3(O)[C@H]1C5` [naloxone], for which the “VT/PAG signal change during infusion” value in the assay with VT/PAG brain region was “negative percent change”.
